Assay results from ChEMBL document CHEMBL5385872, “Design and syntheses of a bimolecular STING agonist based on the covalent STING antagonist” (Eur J Med Chem, 2023).
Calls of active or inactive are those of the source.

What was measured:
[1] = target: T1, Stimulator of interferon genes protein (Mus musculus) (UniProt Q3TBT3); experiment: Agonist activity at STING in mouse BMDC cells assessed as change in TBK1 phosphorylation (initially increase and then decreased) at 20 uM measured after 5 hrs by Western blot analysis; assay type: cell-based; settings: filed as agonist
T1 sequence (whole entry): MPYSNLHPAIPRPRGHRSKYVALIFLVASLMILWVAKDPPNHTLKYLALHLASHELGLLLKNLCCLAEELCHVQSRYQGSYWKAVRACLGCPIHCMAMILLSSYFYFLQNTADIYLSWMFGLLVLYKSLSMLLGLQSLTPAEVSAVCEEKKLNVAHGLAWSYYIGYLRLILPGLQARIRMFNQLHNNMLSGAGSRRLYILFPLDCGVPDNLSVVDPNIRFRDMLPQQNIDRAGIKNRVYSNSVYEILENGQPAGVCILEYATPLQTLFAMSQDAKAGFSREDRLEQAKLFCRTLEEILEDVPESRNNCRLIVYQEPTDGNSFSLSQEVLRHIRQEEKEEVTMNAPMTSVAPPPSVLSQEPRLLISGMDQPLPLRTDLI

Mus musculus [2] = experiment: Induction of immune-activation effect in wild type female BALB/c mouse assessed as increase in serum TNFalpha level at 15 to 30 mg/kg, ip measured after 24 to 48 hrs by ELISA relative to control; assay type: functional, organism-based; settings: dose 15-30 mg/kg, time 24-48 hrs
[3] = target: T1, Stimulator of interferon genes protein (Mus musculus); experiment: Agonist activity at STING in mouse BMDM cells assessed as change in TBK1 phosphorylation (initially increase and then decreased) at 20 uM measured after 5 hrs by Western blot analysis; assay type: cell-based; settings: filed as agonist
[4] = target: Stimulator of interferon genes protein (Homo sapiens) (UniProt Q86WV6); experiment: Induction of STING-dependent gene expression in human HT-1080 cells assessed as IFNbeta mRNA expression at 20 uM incubated for 8 hrs by qRT-PCR analysis; assay type: cell-based; settings: filed as agonist
Sequence of Stimulator of interferon genes protein (Homo sapiens) (Q86WV6 whole entry): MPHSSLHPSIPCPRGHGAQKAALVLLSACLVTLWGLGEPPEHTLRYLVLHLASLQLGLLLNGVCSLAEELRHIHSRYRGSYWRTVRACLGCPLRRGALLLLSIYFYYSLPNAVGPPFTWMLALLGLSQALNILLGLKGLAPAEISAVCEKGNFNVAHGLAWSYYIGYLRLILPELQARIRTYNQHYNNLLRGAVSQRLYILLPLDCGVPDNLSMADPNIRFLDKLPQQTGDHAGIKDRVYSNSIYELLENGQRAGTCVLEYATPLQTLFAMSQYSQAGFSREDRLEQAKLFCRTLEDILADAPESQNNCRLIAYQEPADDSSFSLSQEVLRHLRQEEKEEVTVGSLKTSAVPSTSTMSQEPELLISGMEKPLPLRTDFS

[5] = target: T1, Stimulator of interferon genes protein (Mus musculus); experiment: Induction of STING dimerization in mouse BMDC cells assessed as dimerization (initially increase and then decreased) at 2.5 to 20 uM measured after 5 hrs by Western blot analysis; assay type: cell-based; settings: filed as agonist, dose 2.5-20 µM
[6] = target: T1, Stimulator of interferon genes protein (Mus musculus); experiment: Induction of STING dimerization in mouse BMDM cells assessed as dimerization (initially increase and then decreased) at 2.5 to 20 uM measured after 5 hrs by Western blot analysis; assay type: cell-based; settings: filed as agonist, dose 2.5-20 µM
Mus musculus [7] = experiment: Induction of immune-activation effect in wild type female BALB/c mouse assessed as increase in serum IFNbeta level at 15 to 30 mg/kg, ip measured after 24 to 48 hrs by ELISA relative to control; assay type: functional, organism-based; settings: dose 15-30 mg/kg, time 24-48 hrs
[8] = target: Stimulator of interferon genes protein (Homo sapiens) (UniProt Q86WV6); experiment: Induction of STING-dependent gene expression in human HT-1080 cells assessed as IFNalpha mRNA expression at 20 uM incubated for 8 hrs by qRT-PCR analysis; assay type: cell-based; settings: filed as agonist
[9] = target: T1, Stimulator of interferon genes protein (Mus musculus); experiment: Induction of STING-dependent gene expression in mouse BMDC cells assessed as IFNalpha mRNA expression at 20 uM incubated for 8 hrs by qRT-PCR analysis; assay type: cell-based; settings: filed as agonist
[10] = target: T1, Stimulator of interferon genes protein (Mus musculus); experiment: Induction of STING-dependent gene expression in mouse BMDC cells assessed as IFNbeta mRNA expression at 20 uM incubated for 8 hrs by qRT-PCR analysis; assay type: cell-based; settings: filed as agonist
[11] = target: Stimulator of interferon genes protein (Homo sapiens) (UniProt Q86WV6); experiment: Induction of oligomerization of STING in HEK-293T cells stably expressing STING-Flag ( unknown origin) measured after 4 hrs by immunoprecipitation assay; assay type: cell-based; settings: filed as agonist

Measured: Activity

O=C(NCCCCCCCNC(=O)c1ccc([N+](=O)[O-])o1)c1ccc([N+](=O)[O-])o1
active: [1] | Mus musculus [2] | [3] | [4] | [5] | [6] | Mus musculus [7] | [8] | [9] | [10] | [11]
